Test results published in patent US20080269266A1, “NOVEL COMPOUNDS 747” (ASTRAZENECA AB, priority 2007, published 2008).

Experiments:
[1] = molecular target: hERG (human ether-a-go-go-related gene) ion channel (Homo sapiens, UniProt Q12809); experiment: hERG; assay type: cell-based
From the text: Conclusion: Compounds of the present invention (Example 1) while showing good IGF inhibition, also show decreased Cytochrome P450 inhibition when compared to a known IGF inhibitor (Comparative Example A). Low inhibition of Cytochrome P450 is desirable to ameliorate potential drug: drug interactions. hERG hERG can be tested according to the methods described in Journal of Pharmacolgical and Toxicological Methods 2006, 54, 189-199.

[2] = molecular target: T1, human IGF1R (Homo sapiens, UniProt P08069); experiment: Inhibition of Insulin-Like Growth Factor-1 Receptor Phosphorylation in R+ cells; assay type: cell-based; conditions: median; R+ cells stimulated with 30 nM IGF1
T1 construct: expressed in transfected cells; host or cells: R+ cells (R- mouse fibroblasts transfected with human IGF1R)
Method: This immunofluorescence end point cell assay measures the ability of a test compound to reduce the measured levels of IGF1R phosphorylation after IGF1 stimulation in R cells. R^+ cells are derived by transfection of R^− mouse fibroblast cells with human IGF1R. R^+ cells are routinely cultured in DMEM growth medium (Gibco BRL, 41966) containing 2 mM L-Glutamine (Invitrogen Code no. 25030-024) and 10% (v/v) foetal bovine serum (FBS)) in a 5% CO2 air incubator at 37° C.
To undertake the assay, the R^+ cells are seeded at 5×10^3 cells/well in DMEM plus 1% foetal calf serum, 1% L-glutamine in 96-well black Packard View plates (PerkinElmer 6005182) and incubated at 37° C. (+5% CO2) in a humidified incubator. […]
Following the compound treatment, the R^+ cells are stimulated with a final concentration of 30 nM IGF1 (Gropep IM001) for 20 minutes at 37° C. […] Additionally, in-house antibodies raised against phospho IGF1R were also used at a suitable titre determined for each batch. […]
The Green Fluorescent phospho IGF1R-associated signal in each well was measured using an Acumen Explorer HTS Reader (TTP Labtech Ltd., Cambridge). Phospho IGF1R-associated fluorescence emission can be detected at 530 nm following excitation at 488 nm. […] These fluorescent objects can be quantified and provide a measure of the phospho IGF1R levels in cells. […]

[3] = LogD (shake flask method); assay type: physicochemical
From the text: LogD can be measured using the generic shake flask method as described in Lars-Goran Danielsson, Yu Hui Zhang, Trends in Analytical Chemistry, 1996, 15(4), 188-196, and also by the method described in B. Law and D. Temesi, J. Chromatogr. B 748 (2000), 21-30.

T1 sequence (P08069 31-1367): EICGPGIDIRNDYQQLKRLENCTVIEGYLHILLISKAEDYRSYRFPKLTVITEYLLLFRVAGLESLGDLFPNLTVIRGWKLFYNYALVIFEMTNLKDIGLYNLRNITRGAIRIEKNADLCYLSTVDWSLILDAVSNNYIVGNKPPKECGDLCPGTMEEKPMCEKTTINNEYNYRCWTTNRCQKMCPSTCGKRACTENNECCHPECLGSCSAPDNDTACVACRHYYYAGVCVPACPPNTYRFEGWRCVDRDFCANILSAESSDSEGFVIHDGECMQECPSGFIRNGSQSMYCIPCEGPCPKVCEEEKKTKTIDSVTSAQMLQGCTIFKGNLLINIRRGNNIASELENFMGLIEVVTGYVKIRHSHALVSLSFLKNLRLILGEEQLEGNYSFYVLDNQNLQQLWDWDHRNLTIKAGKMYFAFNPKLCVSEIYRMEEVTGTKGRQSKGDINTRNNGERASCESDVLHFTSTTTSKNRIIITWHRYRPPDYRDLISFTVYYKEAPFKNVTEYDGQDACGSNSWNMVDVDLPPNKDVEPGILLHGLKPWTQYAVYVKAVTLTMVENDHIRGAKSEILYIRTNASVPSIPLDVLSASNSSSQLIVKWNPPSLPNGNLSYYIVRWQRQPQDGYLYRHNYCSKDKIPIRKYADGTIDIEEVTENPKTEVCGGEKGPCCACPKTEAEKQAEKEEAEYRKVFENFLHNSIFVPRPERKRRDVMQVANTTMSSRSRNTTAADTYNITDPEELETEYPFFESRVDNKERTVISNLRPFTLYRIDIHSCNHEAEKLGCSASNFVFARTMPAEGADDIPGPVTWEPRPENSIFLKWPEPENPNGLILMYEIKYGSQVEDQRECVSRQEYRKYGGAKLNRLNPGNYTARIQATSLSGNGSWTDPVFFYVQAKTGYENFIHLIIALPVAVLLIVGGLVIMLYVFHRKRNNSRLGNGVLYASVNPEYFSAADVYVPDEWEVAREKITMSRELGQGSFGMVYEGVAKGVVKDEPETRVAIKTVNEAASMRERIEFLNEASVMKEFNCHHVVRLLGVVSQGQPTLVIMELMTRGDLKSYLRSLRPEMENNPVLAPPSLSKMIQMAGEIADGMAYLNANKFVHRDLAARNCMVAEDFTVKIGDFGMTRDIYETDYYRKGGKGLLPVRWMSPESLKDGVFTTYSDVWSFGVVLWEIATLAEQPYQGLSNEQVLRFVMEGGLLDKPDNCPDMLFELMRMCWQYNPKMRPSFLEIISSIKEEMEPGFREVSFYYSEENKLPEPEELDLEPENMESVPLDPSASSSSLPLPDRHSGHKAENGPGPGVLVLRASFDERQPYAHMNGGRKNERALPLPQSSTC
Sequence of hERG (human ether-a-go-go-related gene) ion channel (Q12809 whole entry): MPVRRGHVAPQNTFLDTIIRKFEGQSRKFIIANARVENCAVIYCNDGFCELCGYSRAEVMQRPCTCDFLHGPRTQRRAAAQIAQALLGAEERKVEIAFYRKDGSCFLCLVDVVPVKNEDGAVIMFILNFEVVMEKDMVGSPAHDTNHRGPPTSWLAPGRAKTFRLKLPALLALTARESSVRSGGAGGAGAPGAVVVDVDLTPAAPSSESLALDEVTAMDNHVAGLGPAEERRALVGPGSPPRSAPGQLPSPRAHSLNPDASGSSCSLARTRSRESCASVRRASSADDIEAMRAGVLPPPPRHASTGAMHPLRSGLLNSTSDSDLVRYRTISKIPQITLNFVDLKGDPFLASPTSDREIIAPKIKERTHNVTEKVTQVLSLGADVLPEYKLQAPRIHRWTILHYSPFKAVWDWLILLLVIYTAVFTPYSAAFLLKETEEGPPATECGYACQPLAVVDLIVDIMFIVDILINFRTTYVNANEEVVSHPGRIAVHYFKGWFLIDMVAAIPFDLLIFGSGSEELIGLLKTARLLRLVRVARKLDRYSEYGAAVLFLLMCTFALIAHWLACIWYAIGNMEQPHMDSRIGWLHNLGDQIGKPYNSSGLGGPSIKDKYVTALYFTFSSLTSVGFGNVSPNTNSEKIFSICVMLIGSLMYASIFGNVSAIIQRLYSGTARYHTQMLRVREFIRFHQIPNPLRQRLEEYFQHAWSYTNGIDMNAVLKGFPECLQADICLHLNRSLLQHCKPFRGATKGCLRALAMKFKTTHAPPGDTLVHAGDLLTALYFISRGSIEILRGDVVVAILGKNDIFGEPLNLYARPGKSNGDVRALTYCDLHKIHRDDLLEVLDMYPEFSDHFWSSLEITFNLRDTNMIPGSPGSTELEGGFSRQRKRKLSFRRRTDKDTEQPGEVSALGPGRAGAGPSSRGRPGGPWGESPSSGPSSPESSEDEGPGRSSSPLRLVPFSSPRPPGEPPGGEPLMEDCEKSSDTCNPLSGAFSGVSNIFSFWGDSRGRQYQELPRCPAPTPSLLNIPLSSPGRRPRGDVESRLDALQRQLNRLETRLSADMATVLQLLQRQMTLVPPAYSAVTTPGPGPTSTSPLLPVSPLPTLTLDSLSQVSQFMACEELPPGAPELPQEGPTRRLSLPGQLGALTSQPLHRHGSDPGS

IC50 [2] [nM]	logD [3]	SMILES	IC50 [1] [nM]
2.68	3.43	CCc1cc(Nc2cc(OC)nc(N3CCC[C@H]3c3cc(-c4ncccn4)no3)n2)n[nH]1 [Comparative Example A, (S)-6-Methoxy-2-{2-[3-(pyrimid-2-yl)isoxazol-5-yl]pyrrolidin-1-yl}-4-(5-ethyl-1H-pyrazol-3-ylamino)pyrimidine]	25200
4.29	3.12	COc1cc(Nc2cc(C)n[nH]2)nc(N2CCC[C@H]2c2cc(-c3ncccn3)no2)n1 [Example 1, (S)-6-Methoxy-2-{2-[3-(pyrimid-2-yl)isoxazol-5-yl]pyrrolidin-1-yl}-4-(5-methyl-1H-pyrazol-3-ylamino)pyrimidine]	> 32000
